Columns and labels:
Settings in all cases: 72 h
HepG2 [1] = assay: drug sensitivity score (DSS) for viability; higher = more toxic; extreme values may be limits of the assay
Caco-2 [2] = assay: as above
U2OS [3] = assay: as above
Vero E6 [4] = assay: as above
Calu-3 [5] = assay: as above
HepG2 [6] = assay: cell viability relative to DMSO; higher = less toxic
Caco-2 [7] = assay: as above
U2OS [8] = assay: as above
Vero E6 [9] = assay: as above
Calu-3 [10] = assay: as above
HepG2 [11] = assay: relative viability EC50 (midpoint between 100% and the lowest measured viability); higher = less toxic
Caco-2 [12] = assay: as above
U2OS [13] = assay: as above
Vero E6 [14] = assay: as above
Calu-3 [15] = assay: as above

Compound	drug sensitivity score (HepG2 [1])	drug sensitivity score (Caco-2 [2])	drug sensitivity score (U2OS [3])	drug sensitivity score (Vero E6 [4])	drug sensitivity score (Calu-3 [5])	cell viability (HepG2 [6]; 1 nM) [%]	cell viability (HepG2 [6]; 10 nM) [%]	cell viability (HepG2 [6]; 100 nM) [%]	cell viability (HepG2 [6]; 1000 nM) [%]	cell viability (HepG2 [6]; 10000 nM) [%]	cell viability (Caco-2 [7]; 1 nM) [%]	cell viability (Caco-2 [7]; 10 nM) [%]	cell viability (Caco-2 [7]; 100 nM) [%]	cell viability (Caco-2 [7]; 1000 nM) [%]	cell viability (Caco-2 [7]; 10000 nM) [%]	cell viability (U2OS [8]; 1 nM) [%]	cell viability (U2OS [8]; 10 nM) [%]	cell viability (U2OS [8]; 100 nM) [%]	cell viability (U2OS [8]; 1000 nM) [%]	cell viability (U2OS [8]; 10000 nM) [%]	cell viability (Vero E6 [9]; 1 nM) [%]	cell viability (Vero E6 [9]; 10 nM) [%]	cell viability (Vero E6 [9]; 100 nM) [%]	cell viability (Vero E6 [9]; 1000 nM) [%]	cell viability (Vero E6 [9]; 10000 nM) [%]	cell viability (Calu-3 [10]; 1 nM) [%]	cell viability (Calu-3 [10]; 10 nM) [%]	cell viability (Calu-3 [10]; 100 nM) [%]	cell viability (Calu-3 [10]; 1000 nM) [%]	cell viability (Calu-3 [10]; 10000 nM) [%]	relative viability EC50 (HepG2 [11]) [µM]	relative viability EC50 (Caco-2 [12]) [µM]	relative viability EC50 (U2OS [13]) [µM]	relative viability EC50 (Vero E6 [14]) [µM]	relative viability EC50 (Calu-3 [15]) [µM]
O=C(NCC1CCCCN1)c1cc(OCC(F)(F)F)ccc1OCC(F)(F)F (stereo not given) [flecainide]	0	0	0	0	0	96.5	103	93.3	94.9	106	94.1	89.9	94.5	86	104	98.8	97.2	103	100	97.6	90	99.6	90.1	93.8	99.1	108	100	97.5	101	101	> 10	> 10	> 10	> 10	> 10
CNC(=O)c1c(C)oc2cc(Oc3ncnc4cc(OC)c(OC)cc34)ccc12 [fruquintinib]	0	0	0	0	0	107	109	100	86.5	103	90	97.4	97.8	98.9	94.7	102	104	102	102	90.8	96.1	93.4	102	94.5	91.6	103	103	98.7	107	98.8	> 10	> 10	> 10	> 10	> 10
COc1cc2c(=O)c(-c3ccc(O)cc3)coc2cc1O [glycitein]	0	0	0	0	0	105	103	99.2	111	92.9	86.4	97.3	101	96	94.2	98.1	99.3	102	98.2	99.5	102	103	98.2	99.6	94.4	92.9	99.6	101	101	96.7	> 10	> 10	> 10	> 10	> 10

— the supplement of paper PMC13380429
